Assay results reported in EP4737454A1, “GLP-1 RECEPTOR AGONIST, AND PREPARATION METHOD THEREFOR AND USE THEREOF” (Wayne Biotechnology Co., Ltd., priority 2023, dated 2025).

biological target: Human GLP-1R (Homo sapiens, UniProt P43220); assay: cAMP level determination in human GLP-1R stably transfected HEK293T cells (HTRF cAMP kit); assay type: cell-based; details: 37°C 30 min
Method: Human GLP-1R HEK293T stably transfected cells were digested with trypsin, terminated with DMEM total (without p/s), centrifuged and washed twice with 1X Stimulation buffer, then resuspended in 1X stimulation buffer and counted. The cells were then prepared as a 1 Million/mL cell suspension in stimulation buffer. Compound powder was first prepared as a 10 mM stock solution in DMSO, then diluted to 2 mM with DMSO, and further prepared as 2X compound in 1X stimulation buffer (Cisbio kit buffer with freshly added IBMX at a final concentration of 0.5 mM). The top dose final concentration was 2000 nM, with a final DMSO concentration of 0.2%, diluted in a 1:3 gradient for 11 gradients.
According to the layout, 5 µl of compound was added to each well; Min wells contained 100 nM GLP-1, and Max wells contained 0.2% DMSO in 1X stimulation buffer. 5 µl of cell suspension was added to each well, centrifuged at 300 rpm at room temperature for 1 min, then incubated at 37°C for 30 min. 2X cAMP standards were prepared in 1X Stimulation buffer, with a top final concentration of 2.8 µM, diluted in a 1:3 gradient for 12 doses. According to the layout, 10 µl was added to each well. Finally, d2 and antibody were diluted 20-fold in 1X Detection buffer (Cisbio kit buffer), and 5 µl of each was added to each well according to the layout. After centrifugation at 300 rpm at room temperature for 1 min, the plate was incubated at room temperature for 2 hr.
Stimulation% was calculated based on Min and Max readings (665nm/615nm ratio) using the formula: 100*(ratio Max well - ratio test well)/(ratio Max well - ratio Min well). The cAMP concentration in each test well was derived from the cAMP standard curve, and the data was analyzed using GraphPad Prism 9 to plot four-parameter fit curves and calculate EC50 values using the formula: Y=Bottom + (Top-Bottom)/(1+10^((LogEC50-X)*HillSlope)). Table 1: cAMP Level Determination in Human GLP-1R Stably Transfected HEK293T Cells

Human GLP-1R, sequence (P43220 24-463): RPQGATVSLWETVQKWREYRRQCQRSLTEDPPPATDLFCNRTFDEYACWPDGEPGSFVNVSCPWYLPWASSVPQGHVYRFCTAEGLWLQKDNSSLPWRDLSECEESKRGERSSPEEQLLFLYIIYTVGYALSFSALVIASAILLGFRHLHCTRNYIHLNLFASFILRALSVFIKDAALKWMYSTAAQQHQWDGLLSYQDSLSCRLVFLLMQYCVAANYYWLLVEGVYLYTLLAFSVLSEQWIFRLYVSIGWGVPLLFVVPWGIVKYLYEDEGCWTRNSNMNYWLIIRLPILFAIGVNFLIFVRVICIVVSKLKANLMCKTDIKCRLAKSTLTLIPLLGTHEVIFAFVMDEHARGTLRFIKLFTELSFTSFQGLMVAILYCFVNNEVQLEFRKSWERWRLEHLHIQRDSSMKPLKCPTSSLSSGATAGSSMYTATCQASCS

Compared with `Cc1cc(-n2nc3c(c2-n2ccn(-c4cc(F)c(C#N)cc4F)c2=O)[C@H](C)N(C(=O)c2cc4cc(C5CCOC(C)(C)C5)ccc4n2[C@@]2(c4nc(=O)o[nH]4)C[C@@H]2C)CC3)cc(C)c1F` (stereo partly shown) [Compound 83], `Cc1cc(-n2nc3c(c2-n2ccn(-c4ccc(C#N)cc4F)c2=O)[C@H](C)N(C(=O)c2cc4cc([C@H]5CCOC(C)(C)C5)ccc4n2[C@@]2(c4nc(=O)o[nH]4)C[C@@H]2C)CC3)cc(C)c1F` [Compound 81b] is 3.3-fold lower in EC50: 0.0129 µM for the first, 0.00392 µM for the second.

Going from `Cc1cc(-n2nc3c(c2-n2ccn(-c4ccc5c(c4F)CCS5(=O)=O)c2=O)[C@H](C)N(C(=O)c2cc4cc(C5CCOC(C)(C)C5)ccc4n2[C@@]2(c4nc(=O)o[nH]4)C[C@@H]2C)CC3)cc(C)c1F` (stereo partly shown) [Compound 60] to `Cc1cc(-n2nc3c(c2-n2ccn(-c4ccc5c(c4)CCS5(=O)=O)c2=O)[C@H](C)N(C(=O)c2cc4cc([C@@H]5CCOC(C)(C)C5)ccc4n2[C@@]2(c4nc(=O)o[nH]4)C[C@@H]2C)CC3)cc(C)c1F` [Compound 56a], the EC50 rises from 0.0106 µM to 0.241 µM (23-fold).

First: Cc1cc(-n2nc3c(c2-n2ccn(-c4ccc5c(c4)CCN(C4CC4)C5=O)c2=O)[C@H](C)N(C(=O)c2cc4cc(C5CCOC(C)(C)C5)ccc4n2[C@@]2(c4nc(=O)o[nH]4)C[C@@H]2C)CC3)cc(C)c1F (stereo partly shown) [Compound 55]
Second: Cc1cc(-n2nc3c(c2-n2ccn(-c4ccc(C#N)c(C5CC5)c4)c2=O)[C@H](C)N(C(=O)c2cc4cc(C5CCOC(C)(C)C5)ccc4n2[C@@]2(c4nc(=O)o[nH]4)C[C@@H]2C)CC3)cc(C)c1F (stereo partly shown) [Compound 79]
The EC50 of the first is 2.2-fold lower: 0.00807 µM for the first, 0.0178 µM for the second. The first is the more potent here.

`Cc1cc(-n2nc3c(c2-n2ccn(-c4ccc(C(=O)N(C)C5(C(F)(F)F)CC5)cc4)c2=O)[C@H](C)N(C(=O)c2cc4cc(C5CCOC(C)(C)C5)ccc4n2[C@@]2(c4nc(=O)o[nH]4)C[C@@H]2C)CC3)cc(C)c1F` (stereo partly shown) [Compound 16] and `Cc1cc(-n2nc3c(c2-n2ccn(-c4ccc(C(=O)N(C)C5(C)CC5)c(C(F)(F)F)c4)c2=O)[C@H](C)N(C(=O)c2cc4cc([C@H]5CCOC(C)(C)C5)ccc4n2[C@@]2(c4nc(=O)o[nH]4)C[C@@H]2C)CC3)cc(C)c1F` [Compound 15] are within 1.5-fold of each other in EC50: 0.01 µM for the first, 0.00727 µM for the second.

Compared with `Cc1cc(-n2nc3c(c2-n2ccn(-c4ccc(C(=O)N5CCC5)c(F)c4)c2=O)[C@H](C)N(C(=O)c2cc4cc(C5CCOC(C)(C)C5)ccc4n2[C@@]2(c4nc(=O)o[nH]4)C[C@@H]2C)CC3)cc(C)c1F` (stereo partly shown) [Compound 53], `Cc1cc(-n2nc3c(c2-n2ccn(-c4ccc(N(C)C(=O)C5(C)CC5)c(F)c4)c2=O)[C@H](C)N(C(=O)c2cc4cc([C@H]5CCOC(C)(C)C5)ccc4n2[C@@]2(c4nc(=O)o[nH]4)C[C@@H]2C)CC3)cc(C)c1F` [Compound 71] is 6.4-fold lower in EC50: 0.0255 µM for the first, 0.00401 µM for the second. The second is the more potent here.

Going from `Cc1cc(-n2nc3c(c2-n2ccn(-c4ccc(N(C)C5CC5)c(Cl)c4)c2=O)[C@H](C)N(C(=O)c2cc4cc(C5CCOC(C)(C)C5)ccc4n2[C@@]2(c4nc(=O)o[nH]4)C[C@@H]2C)CC3)cc(C)c1F` (stereo partly shown) [Compound 67] to `Cc1cc(-n2nc3c(c2-n2ccn(-c4cccc(C(=O)N(C)C5CC5)c4)c2=O)[C@H](C)N(C(=O)c2cc4cc(C5CCOC(C)(C)C5)ccc4n2[C@@]2(c4nc(=O)o[nH]4)C[C@@H]2C)CC3)cc(C)c1F` (stereo partly shown) [Compound 45], the EC50 falls from 0.0678 µM to 0.041 µM (1.7-fold).

Going from `Cc1cc(-n2nc3c(c2-n2ccn(-c4ccc5c(c4)S(=O)(=O)CC5)c2=O)[C@H](C)N(C(=O)c2cc4cc(C5CCOC(C)(C)C5)ccc4n2[C@@]2(c4nc(=O)o[nH]4)C[C@@H]2C)CC3)cc(C)c1F` (stereo partly shown) [Compound 57] to `Cc1cc(-n2nc3c(c2-n2ccn(-c4ccc(C(F)(F)F)c(C#N)c4)c2=O)[C@H](C)N(C(=O)c2cc4cc(C5CCOC(C)(C)C5)ccc4n2[C@@]2(c4nc(=O)o[nH]4)C[C@@H]2C)CC3)cc(C)c1F` (stereo partly shown) [Compound 84], the EC50 falls from 0.0158 µM to 0.00987 µM (1.6-fold). The second is the more potent here.

First: Cc1cc(-n2nc3c(c2-n2ccn(-c4ccc(N(C)C(=O)C5CC5)c(C(F)(F)F)c4)c2=O)[C@H](C)N(C(=O)c2cc4cc([C@H]5CCOC(C)(C)C5)ccc4n2[C@@]2(c4nc(=O)o[nH]4)C[C@@H]2C)CC3)cc(C)c1F [Compound 74]
Second: Cc1cc(-n2nc3c(c2-n2ccn(-c4ccc(OC(F)(F)F)c(C(=O)N(C)C5CC5)c4)c2=O)[C@H](C)N(C(=O)c2cc4cc(C5CCOC(C)(C)C5)ccc4n2[C@@]2(c4nc(=O)o[nH]4)C[C@@H]2C)CC3)cc(C)c1F (stereo partly shown) [Compound 38]
The EC50 of the first is 5.6-fold lower: 0.00325 µM for the first, 0.0181 µM for the second.

Going from `Cc1cc(-n2nc3c(c2-n2ccn(-c4ccc(C#N)c(C(F)(F)F)c4)c2=O)[C@H](C)N(C(=O)c2cc4cc(C5CCOC(C)(C)C5)ccc4n2[C@@]2(c4nc(=O)o[nH]4)C[C@@H]2C)CC3)cc(C)c1F` (stereo partly shown) [Compound 86] to `Cc1cc(-n2nc3c(c2-n2ccn(-c4ccc(OC(F)(F)F)c(C#N)c4)c2=O)[C@H](C)N(C(=O)c2cc4cc(C5CCOC(C)(C)C5)ccc4n2[C@@]2(c4nc(=O)o[nH]4)C[C@@H]2C)CC3)cc(C)c1F` (stereo partly shown) [Compound 94], the EC50 rises from 0.0138 µM to 0.0216 µM (1.6-fold). The first is the more potent here.

Compared with `Cc1cc(-n2nc3c(c2-n2ccn(-c4ccc(C(=O)N(C)C5CC5)nc4)c2=O)[C@H](C)N(C(=O)c2cc4cc(C5CCOC(C)(C)C5)ccc4n2[C@@]2(c4nc(=O)o[nH]4)C[C@@H]2C)CC3)cc(C)c1F` (stereo partly shown) [Compound 24], `Cc1cc(-n2nc3c(c2-n2ccn(-c4ccccc4C(=O)N(C)C4CC4)c2=O)[C@H](C)N(C(=O)c2cc4cc(C5CCOC(C)(C)C5)ccc4n2[C@@]2(c4nc(=O)o[nH]4)C[C@@H]2C)CC3)cc(C)c1F` (stereo partly shown) [Compound 39] is 4.8-fold lower in EC50: 0.0542 µM for the first, 0.0113 µM for the second. The second is the more potent here.

First: CCc1cc(-n2ccn(-c3c4c(nn3-c3cc(C)c(F)c(C)c3)CCN(C(=O)c3cc5cc([C@H]6CCOC(C)(C)C6)ccc5n3[C@@]3(c5nc(=O)o[nH]5)C[C@@H]3C)[C@H]4C)c2=O)ccc1C(=O)N(C)C1CC1 [Compound 8]
Second: Cc1cc(-n2nc3c(c2-n2ccn(-c4c(F)cccc4C(=O)N(C)C4CC4)c2=O)[C@H](C)N(C(=O)c2cc4cc(C5CCOC(C)(C)C5)ccc4n2[C@@]2(c4nc(=O)o[nH]4)C[C@@H]2C)CC3)cc(C)c1F (stereo partly shown) [Compound 40]
The EC50 of the first is 33-fold lower: 0.00475 µM for the first, 0.155 µM for the second. The first is the more potent here.

Going from `Cc1cc(C#N)ccc1-n1ccn(-c2c3c(nn2-c2cc(C)c(F)c(C)c2)CCN(C(=O)c2cc4cc(C5CCOC(C)(C)C5)ccc4n2[C@@]2(c4nc(=O)o[nH]4)C[C@@H]2C)[C@H]3C)c1=O` (stereo partly shown) [Compound 88] to `Cc1cc(-n2nc3c(c2-n2ccn(-c4ccc(N(C)C5CC5)cc4C(F)(F)F)c2=O)[C@H](C)N(C(=O)c2cc4cc(C5CCOC(C)(C)C5)ccc4n2[C@@]2(c4nc(=O)o[nH]4)C[C@@H]2C)CC3)cc(C)c1F` (stereo partly shown) [Compound 65], the EC50 rises from 0.205 µM to 0.648 µM (3.2-fold). The first is the more potent here.

Going from `Cc1cc(-n2ccn(-c3c4c(nn3-c3cc(C)c(F)c(C)c3)CCN(C(=O)c3cc5cc(C6CCOC(C)(C)C6)ccc5n3[C@@]3(c5nc(=O)o[nH]5)C[C@@H]3C)[C@H]4C)c2=O)ccc1C(=O)N(C)C1(C)CC1` (stereo partly shown) [Compound 35] to `Cc1cc(-n2nc3c(c2-n2ccn(-c4ccc(C(=O)N(C)C5CC5)c(OC(F)(F)F)c4F)c2=O)[C@H](C)N(C(=O)c2cc4cc([C@H]5CCOC(C)(C)C5)ccc4n2[C@@]2(c4nc(=O)o[nH]4)C[C@@H]2C)CC3)cc(C)c1F` [Compound 54], the EC50 falls from 0.02 µM to 0.00448 µM (4.5-fold).

Going from `C[C@H]1c2c(nn(-c3ccc(F)c(N4CCCC4)c3)c2-n2ccn(-c3ccc4c(cnn4C)c3F)c2=O)CCN1C(=O)c1cc2cc(C3CCOC(C)(C)C3)ccc2n1[C@@]1(c2nc(=O)o[nH]2)C[C@@H]1C` (stereo partly shown) [Compound 3] to `Cc1cc(-n2nc3c(c2-n2ccn(-c4ccc(N(C)C(=O)C5(C(F)(F)F)CC5)cc4)c2=O)[C@H](C)N(C(=O)c2cc4cc(C5CCOC(C)(C)C5)ccc4n2[C@@]2(c4noc(=O)[nH]4)C[C@@H]2C)CC3)cc(C)c1F` (stereo partly shown) [Compound 69], the EC50 falls from 0.0265 µM to 0.0103 µM (2.6-fold).
